Read-outs that look alike come from different tables or passages of the source.
What was measured:
A/California/04/09 [1] = format: in vivo, ferrets
A/California/04/09 [2] = tested on: A/California/04/09; design: species or system ferrets; details: in vivo
A/California/04/09 [3] = tested on: A/California/04/09; design: species or system ferrets; details: in vivo; remark: listed apart in the source
A/California/04/09 [4] = tested on: A/California/04/09; design: species or system ferrets; details: in vivo; remark: listed apart in the source
[5] = preliminary results, phase I and II studies; cited from earlier work
in vivo = details: male, po, 5 mg/kg
[6] = tested on: various influenza A and B virus strains; details: cited from earlier work
[7] = in vivo
A/California/04/09-MA = details: cited from earlier work
[8] = human, in vivo; cited from earlier work
[9] = mice, 20 mg/kg at day 1 and 3; data not shown

CCOC(=O)C1=C[C@@H](OC(CC)CC)[C@H](NC(C)=O)[C@@H](N)C1 [oseltamivir, reference compound]
IFN-γ expression in nasal exudates at day 2 and 4 pi (A/California/04/09 [1]; in vivo): trend toward reduced IFN-γ expression
IL-12p40 expression in nasal exudates at day 2 pi (A/California/04/09 [1]; in vivo): reduced IL-12p40 expression
TNF-α expression in nasal exudates at day 2 pi (A/California/04/09 [1]; in vivo): reduced TNF-α expression
Influenza-associated lung pathology and inflammation (A/California/04/09 [2]): limited reduction in pathology
Lung score of the representative animal (range 0–4) (A/California/04/09 [2]): 3
Infiltrating leukocytes in nasal washes at day 2 pi (A/California/04/09 [3]): Lower numbers of infiltrating leukocytes
Lung virus titers at day 4 pi (A/California/04/09 [4]): considerably (p≤0.001) reduced lung virus titers

O=C(/C=C\n1cnc(-c2cc(C(F)(F)F)cc(C(F)(F)F)c2)n1)NNc1cnccn1 [selinexor]
Anti-cancer activity in human patients [5]: evidence of anti-cancer activity
Oral exposure in human patients [5]: good oral exposure

O=C(/C=C\n1cnc(-c2cc(C(F)(F)F)cc(C(F)(F)F)c2)n1)NNc1ccccn1 [verdinexor]
IFN-γ expression in nasal exudates at day 2 and 4 pi (A/California/04/09 [1]; […], not statistically significant): trend toward reduced IFN-γ expression
IL-12p40 expression in nasal exudates at day 2 pi (A/California/04/09 [1]; in vivo, 10 mg/kg): reduced IL-12p40 expression
IL-12p40 expression in nasal exudates at day 2 pi (A/California/04/09 [1]; in vivo, 25 mg/kg): reduced IL-12p40 expression
TNF-α expression in nasal exudates at day 2 pi (A/California/04/09 [1]; in vivo, 25 mg/kg): reduced TNF-α expression
AUC(0-inf) (in vivo): 3510 ng·h/mL
AUC(0-t) (in vivo): 3510 ng·h/mL
Cmax (in vivo): 1490 ng/mL
Tmax (in vivo): 0.361 h
half-life (in vivo): 1.84 h
Replication of various influenza A and B virus strains [6]: effective to inhibit the replication
Influenza-associated lung pathology and inflammation (A/California/04/09 [2]; 10 mg/kg): significant amelioration
Lung score of the representative animal (range 0–4) (A/California/04/09 [2]; 10 mg/kg): 2
Influenza-associated lung pathology and inflammation (A/California/04/09 [2]; 15 mg/kg): limited reduction in pathology
Lung score of the representative animal (range 0–4) (A/California/04/09 [2]; 15 mg/kg): 2
Influenza-associated lung pathology and inflammation (A/California/04/09 [2]; 25 mg/kg): significant amelioration
Lung score of the representative animal (range 0–4) (A/California/04/09 [2]; 25 mg/kg): 2
Infiltrating leukocytes in nasal washes at day 2 pi (A/California/04/09 [3]): Lower numbers of infiltrating leukocytes
Infiltrating leukocytes in nasal washes at day 4 pi (A/California/04/09 [3]; 10 mg/kg): significant (p≤0.05) reduction
Infiltrating leukocytes in nasal washes at day 4 pi (A/California/04/09 [3]; 25 mg/kg): significant (p≤0.05) reduction
Clearance from the plasma [7]: more rapidly cleared from the plasma compared to mice
Oral bioavailability ([7]; po): orally bioavailable
Lung virus titers at day 4 pi (A/California/04/09 [4]; 10 mg/kg): considerably (p≤0.001) reduced lung virus titers
Lung virus titers at day 4 pi (A/California/04/09 [4]; 15 mg/kg): considerably (p≤0.001) reduced lung virus titers
Lung virus titers at day 4 pi (A/California/04/09 [4]; 25 mg/kg): considerably (p≤0.001) reduced lung virus titers
Virus burden and inflammatory cytokines expression in lungs (A/California/04/09-MA; mice infected with A/California/04/09-MA): efficacious in limiting virus burden and inflammatory cytokines expression
Lung pathology and mortality upon lethal virus infection (A/California/04/09-MA; mice, oral verdinexor): reduced lung pathology and mortality
Safety and tolerability in a phase I clinical trial [8]: safe and well-tolerated
Efficacy and tolerability of the treatment regimen [9]: most efficacious yet well tolerated

— PMC5125695, “Antiviral Efficacy of Verdinexor In Vivo in Two Animal Models of Influenza A Virus Infection” (PLoS ONE, 2016)
